Source: US12016868B2, “Boronic acid derivatives and therapeutic uses thereof” (Qpex Biopharma, Inc., priority 2018, dated 2024)

Legend:
AB1053 OXA-72 = assay: Meropenem potentiation assay (MPC@8) and meropenem MIC; assay type: cell-based, Acinetobacter baumannii; conditions: A. baumannii strain AB1053 OXA-72
Procedure: (§1) β-lactamase inhibitors were also tested for their ability to potentiate the carbapenem meropenem against strains of Acinetobacter baumannii producing class D (OXA-23 and OXA-72) carbapenemases. […] Meropenem was present in the test medium at 8 μg/mL. Compounds were tested at concentrations up to 20 μg/mL. In this assay, potency of compounds was reported as the minimum concentration of BLI required to inhibit growth of bacteria in the presence of 8 μg/mL of meropenem (MPC@8).

AB1054 OXA-23 = assay: as above; assay type: cell-based, Acinetobacter baumannii
Procedure: as §1

KP1004 KPC-2 [1] = assay: Biapenem potentiation assay (MPC@1) and biapenem MIC; assay type: cell-based; conditions: strain KP1004 KPC-2
Procedure: (§2) β-lactamase inhibitors were also tested for their ability to potentiate the carbapenem biapenem against strains producing class A (KPC), class D (OXA-48), and class B (metallo β-lactamases, NDM-1 and VIM-1) carbapenemases. The potentiation effect was observed as the ability of BLI compounds to inhibit growth in the presence of a sub-inhibitory concentration of biapenem. […] Biapenem was present in the test medium at 1 μg/mL. Compounds were tested at concentrations up to 20 μg/mL. In this assay, potency of compounds was reported as the minimum concentration of BLI required to inhibit growth of bacteria in the presence of 1 μg/mL of biapenem (MPC@1). Table 3 summarizes the BLI potency of biapenem potentiation (MPC@1) for four strains overexpressing class A (KPC), class D (OXA-48), and class B (NDM-1 and VIM-1) carbapenemases. Biapenem MIC for each strain is also shown.

KP1081 NDM-1 = assay: as above; assay type: cell-based; conditions: strain KP1081 NDM-1
Procedure: as §2

KP1086 OXA-48 = assay: as above; assay type: cell-based; conditions: strain KP1086 OXA-48
Procedure: as §2

[2] = tested on: strains producing class A (KPC), class D (OXA-48), and class B (NDM-1 and VIM-1) carbapenemases; assay: Biapenem MIC of the test strains (panel); assay type: cell-based; conditions: span over all test strains of Table 3
Procedure: as §2

EC1010 CMY-6 [3] = assay: Aztreonam potentiation assay (MPC@4) and aztreonam MIC; assay type: cell-based; conditions: strain EC1010 CMY-6
Procedure: (§3) The potency and spectrum of β-lactamase inhibitors (BLIs) was determined by assessing their aztreonam potentiation activity in a dose titration potentiation assay using strains of various bacteria that are resistant to aztreonam due to expression of various β-lactamases. Aztreonam is a monobactam antibiotic and is hydrolyzed by the majority of β-lactamases that belong to class A or C (but not class B or D). The potentiation effect was observed as the ability of BLI compounds to inhibit growth in the presence of sub-inhibitory concentration of aztreonam. […] Aztreonam was present in the test medium at 4 μg/mL. Compounds were tested at concentrations up to 20 μg/mL. In this assay, potency of compounds was reported as the minimum concentration of BLI required to inhibit growth of bacteria in the presence of 4 μg/mL of aztreonam (MPC@4). Table 1 summarizes the BLI potency of aztreonam potentiation (MPC@4) for various strains overexpressing class A (ESBL and KPC), and class C β-lactamases. Aztreonam MIC for each strain is also shown.

ECL1002 [4] = assay: as above; assay type: cell-based; conditions: strain ECL1002
Procedure: as §3

KP1004 KPC-2 [5] = assay: as above; assay type: cell-based
Procedure: as §3

KP1005 CTX-M-14 [6] = assay: as above; assay type: cell-based
Procedure: as §3

KP1009 CTX-M-15 [7] = assay: as above; assay type: cell-based; conditions: strain KP1009 CTX-M-15
Procedure: as §3

KP1010 SHV-12 [8] = assay: as above; assay type: cell-based; conditions: strain KP1010 SHV-12
Procedure: as §3

ec302 TEM-10 [9] = assay: as above; assay type: cell-based; conditions: strain ec302 TEM-10
Procedure: as §3

ec308 SHV-5 [10] = assay: as above; assay type: cell-based; conditions: strain ec308 SHV-5
Procedure: as §3

EC1010 CMY-6 [11] = assay: Tigemonam potentiation assay (MPC@4) and tigemonam MIC; assay type: cell-based; conditions: strain EC1010 CMY-6
Procedure: (§4) Selected β-lactamase inhibitors were also tested for their ability to potentiate the monobactam tigemonam. […] Tigemonam was present in the test medium at 4 μg/mL. Compounds were tested at concentrations up to 20 μg/mL. In this assay, potency of compounds was reported as the minimum concentration of BLI required to inhibit growth of bacteria in the presence of 4 μg/mL of tigemonam (MPC@4). Table 2 summarizes the BLI potency of tigemonam potentiation (MPC@4) for various strains overexpressing class A (ESBL) and class C β-lactamases.

ECL1002 [12] = assay: as above; assay type: cell-based; conditions: strain ECL1002
Procedure: as §4

KP1005 CTX-M-14 [13] = assay: as above; assay type: cell-based; conditions: strain KP1005 CTX-M-14
Procedure: as §4

KP1009 CTX-M-15 [14] = assay: as above; assay type: cell-based; conditions: strain KP1009 CTX-M-15
Procedure: as §4

KP1010 SHV-12 [15] = assay: as above; assay type: cell-based; conditions: strain KP1010 SHV-12
Procedure: as §4

ec302 TEM-10 [16] = assay: as above; assay type: cell-based; conditions: strain ec302 TEM-10
Procedure: as §4

ec308 SHV-5 [17] = assay: as above; assay type: cell-based; conditions: strain ec308 SHV-5
Procedure: as §4

KP1054 VIM-1 = assay: Biapenem potentiation assay (MPC@1) and biapenem MIC; assay type: cell-based; conditions: minimum BLI concentration inhibiting growth with biapenem 1 μg/mL; strain KP1054 VIM-1; tested up to 20 μg/mL
Procedure: as §2

[18] = minimum BLI concentration inhibiting growth with aztreonam 4 μg/mL, tested up to 20 μg/mL
[19] = minimum BLI concentration inhibiting growth with tigemonam 4 μg/mL, tested up to 20 μg/mL
[20] = minimum BLI concentration inhibiting growth with biapenem 1 μg/mL, tested up to 20 μg/mL

C[C@@H](O)[C@H]1C(=O)N2C(C(=O)O)=C(S[C@@H]3CN[C@H](C(=O)N(C)C)C3)[C@H](C)[C@H]12 [Meropenem]
MIC (AB1053 OXA-72; Acinetobacter baumannii, meropenem alone): > 64 µg/mL
MIC (AB1054 OXA-23; Acinetobacter baumannii, read-out: Meropenem MIC): 32 µg/mL

C[C@@H](O)[C@H]1C(=O)N2C(C(=O)[O-])=C(SC3Cn4cnc[n+]4C3)[C@H](C)[C@H]12 (stereo partly drawn) [Biapenem]
MIC (KP1004 KPC-2 [1]; biapenem alone): 32 µg/mL
MIC (KP1081 NDM-1; biapenem alone): 16 µg/mL
MIC (KP1086 OXA-48; biapenem alone): 16 µg/mL
MIC [2]: 16 to 32 µg/mL

C[C@H]1[C@H](NC(=O)/C(=N\OC(C)(C)C(=O)O)c2csc(N)n2)C(=O)N1S(=O)(=O)O [Aztreonam]
MIC (EC1010 CMY-6 [3]; aztreonam alone): > 128 µg/mL
MIC (ECL1002 [4]; aztreonam alone): 64 µg/mL
MIC (KP1004 KPC-2 [5]; read-out: Aztreonam MIC): > 128 µg/mL
MIC (KP1005 CTX-M-14 [6]; read-out: Aztreonam MIC): > 128 µg/mL
MIC (KP1009 CTX-M-15 [7]; aztreonam alone): > 128 µg/mL
MIC (KP1010 SHV-12 [8]; aztreonam alone): 64 µg/mL
MIC (ec302 TEM-10 [9]; aztreonam alone): 128 µg/mL
MIC (ec308 SHV-5 [10]; aztreonam alone): > 128 µg/mL

CC1(C)[C@H](NC(=O)/C(=N\OCC(=O)O)c2csc(N)n2)C(=O)N1OS(=O)(=O)O [Tigemonam]
Tigemonam MIC (EC1010 CMY-6 [11]; tigemonam alone): 16 µg/mL
Tigemonam MIC (ECL1002 [12]; tigemonam alone): 32 µg/mL
Tigemonam MIC (KP1005 CTX-M-14 [13]; tigemonam alone): >64 µg/mL
Tigemonam MIC (KP1009 CTX-M-15 [14]; tigemonam alone): >64 µg/mL
Tigemonam MIC (KP1010 SHV-12 [15]; tigemonam alone): >64 µg/mL
Tigemonam MIC (ec302 TEM-10 [16]; tigemonam alone): >64 µg/mL
Tigemonam MIC (ec308 SHV-5 [17]; tigemonam alone): >64 µg/mL

COc1ccc2c(c1C(=O)O)OB(O)CC2Cn1cc(CO)nn1 (stereo not drawn) [Compound 16, 2-hydroxy-4-[[4-(hydroxymethyl)triazol-1-yl]methyl]-7-methoxy-3,4-dihydro-1,2-benzoxaborinine-8-carboxylic Acid]
AZT MPC4 CMY-6 EC1010 (EC1010 CMY-6 [3]; [18]): X (X = MPC@4 ≤ 5 μg/mL)
AZT MPC4 ECL1002 (ECL1002 [4]; [18]): X (X = MPC@4 ≤ 5 μg/mL)
AZT MPC4 KPC-2 KP1004 (KP1004 KPC-2 [5]; minimum BLI concentration inhibiting growth with aztreonam 4 μg/mL, strain KP1004 KPC-2, tested up to 20 μg/mL): X (X = MPC@4 ≤ 5 μg/mL)
AZT MPC4 CTX-M-14 KP1005 (KP1005 CTX-M-14 [6]; minimum BLI concentration inhibiting growth with aztreonam 4 μg/mL, strain KP1005 CTX-M-14, tested up to 20 μg/mL): X (X = MPC@4 ≤ 5 μg/mL)
AZT MPC4 CTX-M-15 KP1009 (KP1009 CTX-M-15 [7]; [18]): X (X = MPC@4 ≤ 5 μg/mL)
AZT MPC4 SHV-12 KP1010 (KP1010 SHV-12 [8]; [18]): X (X = MPC@4 ≤ 5 μg/mL)
AZT MPC4 TEM-10 ec302 (ec302 TEM-10 [9]; [18]): X (X = MPC@4 ≤ 5 μg/mL)
AZT MPC4 SHV-5 ec308 (ec308 SHV-5 [10]; [18]): X (X = MPC@4 ≤ 5 μg/mL)
TIG MPC4 CMY-6 EC1010 (EC1010 CMY-6 [11]; [19]): X (X = MPC@4 ≤ 5 μg/mL)
TIG MPC4 ECL1002 (ECL1002 [12]; [19]): X (X = MPC@4 ≤ 5 μg/mL)
TIG MPC4 CTX-M-14 KP1005 (KP1005 CTX-M-14 [13]; [19]): Y (Y = 5 μg/mL < MPC@4 ≤ 20 μg/mL)
TIG MPC4 CTX-M-15 KP1009 (KP1009 CTX-M-15 [14]; [19]): X (X = MPC@4 ≤ 5 μg/mL)
TIG MPC4 SHV-12 KP1010 (KP1010 SHV-12 [15]; [19]): X (X = MPC@4 ≤ 5 μg/mL)
TIG MPC4 TEM-10 ec302 (ec302 TEM-10 [16]; [19]): Y (Y = 5 μg/mL < MPC@4 ≤ 20 μg/mL)
TIG MPC4 SHV-5 ec308 (ec308 SHV-5 [17]; [19]): X (X = MPC@4 ≤ 5 μg/mL)
BPM MPC1 KP1004 KPC-2 (KP1004 KPC-2 [1]; [20]): X (X = MPC@1 ≤ 5 μg/mL)
BPM MPC1 KP1054 VIM-1 (KP1054 VIM-1): Y (Y = 5 μg/mL < MPC@1 ≤ 20 μg/mL)
BPM MPC1 KP1081 NDM-1 (KP1081 NDM-1; [20]): Y (Y = 5 μg/mL < MPC@1 ≤ 20 μg/mL)
BPM MPC1 OXA-48 KP1086 (KP1086 OXA-48; [20]): Y (Y = 5 μg/mL < MPC@1 ≤ 20 μg/mL)
MPM MPC8 AB1053 OXA-72 (AB1053 OXA-72; minimum BLI concentration inhibiting growth with meropenem 8 μg/mL, tested up to 20 μg/mL): X (X = MPC@1 ≤ 5 μg/mL)
MPM MPC8 AB1054 OXA-23 (AB1054 OXA-23; minimum BLI concentration inhibiting growth with meropenem 8 μg/mL, A. baumannii strain AB1054 OXA-23, tested up to 20 μg/mL): Y (Y = 5 μg/mL < MPC@1 ≤ 20 μg/mL)
